Assay results: patent US12281149B2, “Modulators of G-protein coupled receptors” (priority 2021, dated 2025)
pEC50: −log10 of the molar value. *1 amine or outer side, *2 acyl side, *3 side chain or, on linkers, in order; H or OH if unused. Where a SMILES comes first, the peptide text is derived from it. Side-chain parts run from the residue outwards. [ ]: non-standard residue; d: D form. The star is where a group is joined. Isobutyryl(2-(3-CN-5-F-Ph)) = CC(C)(C(=O)*)c1cc(F)cc(C#N)c1; C20 diacid = O=C(O)CCCCCCCCCCCCCCCCCCC(=O)*; αMePhe(2-F) = C[C@](N)(Cc1ccccc1F)C(=O)O; γGlu = O=C(O)[C@H](CCC(=O)[*:2])N[*:1]; X53 = CC(C)(C(=O)*)c1cc(F)cc(F)c1; X57 = CO[C@@H](CN[*:1])C(=O)[*:2]; αMeL = CC(C)C[C@](C)(N)C(=O)O; X61 = CC(C)(C(=O)*)c1ccccc1F; Orn = NCCC[C@H](N)C(=O)O; AEEA = NCCOCCOCC(=O)O; Aib = CC(C)(N)C(=O)O; GABA = NCCCC(=O)O; βAla = NCCC(=O)O

Experiments:
Type in all cases: cell-based
[1] = target: T1, GLP-1 receptor (Homo sapiens, UniProt P43220); test: HitHunter cAMP assay, GLP-1 receptor; settings: for pEC50: CHO cells stably expressing human GLP-1 receptor, cAMP accumulation, 30 min, read-out: EC50 GLP-1R; for Emax: CHO cells, cAMP, normalized to maximum signal from GLP-1 (high) and DMSO (low), read-out: Emax GLP-1R
T1 sequence (P43220 24-463): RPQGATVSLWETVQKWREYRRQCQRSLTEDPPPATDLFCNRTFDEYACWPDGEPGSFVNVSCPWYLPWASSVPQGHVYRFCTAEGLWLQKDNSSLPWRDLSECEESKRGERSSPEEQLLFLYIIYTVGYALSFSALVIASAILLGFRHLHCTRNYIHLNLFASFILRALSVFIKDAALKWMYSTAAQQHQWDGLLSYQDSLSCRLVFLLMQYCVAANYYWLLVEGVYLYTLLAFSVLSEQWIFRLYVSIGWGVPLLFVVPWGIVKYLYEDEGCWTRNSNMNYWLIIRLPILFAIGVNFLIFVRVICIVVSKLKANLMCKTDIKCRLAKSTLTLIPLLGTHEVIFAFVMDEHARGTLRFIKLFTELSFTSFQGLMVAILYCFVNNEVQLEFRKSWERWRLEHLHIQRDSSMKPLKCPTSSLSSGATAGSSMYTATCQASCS

[2] = target: T2, GIP receptor (Homo sapiens, UniProt P48546); test: HitHunter cAMP assay, GIP receptor; settings: for pEC50: CHO cells stably expressing GIP receptor, cAMP accumulation, 30 min, read-out: EC50 GIP-1R; for Emax: CHO cells, cAMP, normalized to maximum signal from GIP (high) and DMSO (low), read-out: Emax GIP-1R
T2 sequence (P48546 22-466): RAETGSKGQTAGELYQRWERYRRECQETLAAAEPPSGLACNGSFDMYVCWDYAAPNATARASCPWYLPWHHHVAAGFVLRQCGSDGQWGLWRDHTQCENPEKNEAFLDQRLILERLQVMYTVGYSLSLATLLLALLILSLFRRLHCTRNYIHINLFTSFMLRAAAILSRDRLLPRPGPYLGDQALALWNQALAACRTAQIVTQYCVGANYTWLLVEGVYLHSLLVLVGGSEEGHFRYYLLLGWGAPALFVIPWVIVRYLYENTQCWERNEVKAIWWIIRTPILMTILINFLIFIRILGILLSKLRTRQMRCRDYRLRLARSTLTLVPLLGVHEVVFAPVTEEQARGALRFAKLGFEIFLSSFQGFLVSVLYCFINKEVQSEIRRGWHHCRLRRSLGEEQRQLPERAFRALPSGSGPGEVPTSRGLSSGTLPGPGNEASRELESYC
Procedure: CAMP accumulation was measured in Chinese hamster ovary (CHO) cells stably expressing the human GLP-1 receptor or GIP receptor using the HitHunter CAMP Assay for Small Molecules Kit (Eurofins). Briefly, cells were grown in Ham's F12 Nutrient Mix with 10% FBS and lifted with Cell dissociation buffer, Enzyme free, PBS based (ThermoFisher). Cells were pelleted and resuspended in Hank's buffered saline solution with 10 mM Hepes and 625 μM 3-isobutyl-1-methylxanthine. The antibody reagent was then added to cells at a 1:2 ratio and 5 μL of mixture was seeded in 384-well small volume white assay plates, at 10,000 cells/well. Cells were then treated with 50 nl compound in DMSO using an ECHO 550 acoustic dispenser (Labcyte) in a 20-point dose response format in triplicate for 30 min. Cells were the lysed and detection reagents added according to the manufacturer's protocol. After overnight incubation, luminescence was measured using a Perkin Elmer Envision plate reader. Raw data was normalized to the maximum signal from GLP-1 or GIP (high) and DMSO (low). Dose response curves were analyzed using GraphPad Prism 9.0.

[3] = target: T2, GIP receptor; test: PathHunter β-arrestin assay, GIP receptor; parameters: host or cells: PathHunter CHO-K1 GIPR β-Arrestin Cell Line; settings: β-arrestin-2 recruitment, PathHunter CHO-K1 GIPR β-Arrestin Cell Line, 90 min at 37° C.; normalized to GIP; read-out: GIPR β Arrestin EC50
Procedure: β-arrestin-2 recruitment for GLP-1 receptor or GIP receptor was measured using the DiscoverX PathHunter Detection Kit and PathHunter® CHO-K1 GLPIR β-Arrestin Cell Line or PathHunter® CHO-K1 GIPR β-Arrestin Cell Line, respectively). Briefly, cells were grown in Ham's F12 Nutrient Mix with 10% FBS and lifted with Cell dissociation buffer, Enzyme free, PBS based (ThermoFisher). Harvested cells were pelleted and resuspended in Assay Complete Cell Plating Reagent 2 and 5000 cells per well were plated in tissue culture treated 384-well small volume white assay plates. Plates were then incubated at 37° C. and 5% CO2 overnight. The media was then replaced with fresh Assay Complete Cell Plating Reagent 2. Cells were then treated with 10 nl compound in DMSO using an ECHO 550 acoustic dispenser (Labcyte) in a 20-point dose response format in duplicate for 90 min at 37° C. The assay was then completed according to the manufacturer's instructions. Luminescence was measured using a Perkin Elmer Envision plate reader. Raw data was normalized to the maximum signal from GLP-1 or GIP (high) and DMSO (low). Dose response curves were analyzed using GraphPad Prism 9.0.

[4] = target: T1, GLP-1 receptor; test: PathHunter β-arrestin assay, GLP-1 receptor; parameters: host or cells: PathHunter CHO-K1 GLP1R β-Arrestin Cell Line; settings: β-arrestin-2 recruitment, PathHunter CHO-K1 GLP1R β-Arrestin Cell Line, 90 min at 37° C.; normalized to GLP-1; read-out: GLP-1R β Arrestin EC50

SMILES	pEC50 [1]	Emax [1] [%]	pEC50 [2]	Emax [2] [%]	pEC50 [3]	pEC50 [4]
CC[C@H](C)[C@H](NC(=O)[C@H](CC(C)C)NC(=O)[C@H](Cc1c[nH]c2ccccc12)NC(=O)[C@H](CCC(N)=O)NC(=O)[C@@H](NC(=O)[C@H](Cc1ccccc1)NC(=O)[C@H](C)NC(=O)[C@H](CCCCNC(=O)COCCOCCNC(=O)COCCOCCNC(=O)CC[C@H](NC(=O)CCCCCCCCCCCCCCCCCCC(=O)O)C(=O)O)NC(=O)[C@H](CCC(N)=O)NC(=O)[C@H](C)NC(=O)[C@@H](NC(=O)[C@H](CCCCN)NC(=O)[C@H](CC(=O)O)NC(=O)[C@H](CC(C)C)NC(=O)C(C)(C)NC(=O)[C@@H](NC(=O)[C@H](CO)NC(=O)[C@H](Cc1ccc(O)cc1)NC(=O)[C@H](CC(=O)O)NC(=O)[C@H](CO)NC(=O)[C@@H](NC(=O)[C@H](Cc1ccccc1)NC(=O)[C@@H](NC(=O)CNC(=O)[C@H](CCC(=O)O)NC(=O)CCNC(=O)C(C)(C)c1cc(F)cc(F)c1)[C@@H](C)O)[C@@H](C)O)[C@@H](C)CC)[C@@H](C)CC)C(C)C)C(=O)N[C@@H](C)C(=O)NCC(=O)NCC(=O)N1CCC[C@H]1C(=O)N[C@@H](CO)C(=O)N[C@@H](CO)C(=O)NCC(=O)N[C@@H](C)C(=O)N1CCC[C@H]1C(=O)N1CCC[C@H]1C(=O)N1CCC[C@H]1C(=O)N[C@@H](CO)C(N)=O [Compound 173] ({X53-βAla}-EGTFTSDYSI[Aib]LDKIAQK([AEEA-AEEA-γGlu-C20 diacid])AFVQWLIAGGPSSGAPPPS-NH2)	> 10.00	98	8.00 to 9.00	103	< 6.00	< 6.00
CC[C@H](C)[C@H](NC(=O)[C@H](CC(C)C)NC(=O)[C@H](Cc1c[nH]c2ccccc12)NC(=O)[C@H](CCC(N)=O)NC(=O)[C@@H](NC(=O)[C@H](Cc1ccccc1)NC(=O)[C@H](C)NC(=O)[C@H](CCCCNC(=O)COCCOCCNC(=O)COCCOCCNC(=O)CC[C@H](NC(=O)CCCCCCCCCCCCCCCCCCC(=O)O)C(=O)O)NC(=O)[C@H](CCC(N)=O)NC(=O)[C@H](C)NC(=O)[C@@H](NC(=O)[C@H](CCCCN)NC(=O)[C@H](CC(=O)O)NC(=O)[C@H](CC(C)C)NC(=O)C(C)(C)NC(=O)[C@@H](NC(=O)[C@H](CO)NC(=O)[C@H](Cc1ccc(O)cc1)NC(=O)[C@H](CC(=O)O)NC(=O)[C@H](CO)NC(=O)[C@@H](NC(=O)[C@H](Cc1ccccc1)NC(=O)[C@@H](NC(=O)CNC(=O)[C@H](CCC(=O)O)NC(=O)[C@H](CNC(=O)C(C)(C)c1cc(F)cc(C#N)c1)OC)[C@@H](C)O)[C@@H](C)O)[C@@H](C)CC)[C@@H](C)CC)C(C)C)C(=O)N[C@@H](C)C(=O)NCC(=O)NCC(=O)N1CCC[C@H]1C(=O)N[C@@H](CO)C(=O)N[C@@H](CO)C(=O)NCC(=O)N[C@@H](C)C(=O)N1CCC[C@H]1C(=O)N1CCC[C@H]1C(=O)N1CCC[C@H]1C(=O)N[C@@H](CO)C(N)=O [Compound 194] ({Isobutyryl(2-(3-CN-5-F-Ph))}-[X57]EGTFTSDYSI[Aib]LDKIAQK([AEEA-AEEA-γGlu-C20 diacid])AFVQWLIAGGPSSGAPPPS-NH2)	7.00 to 8.00	80	7.00 to 8.00	78	< 6.00	< 6.00
CC[C@H](C)[C@H](NC(=O)[C@H](CC(C)C)NC(=O)[C@H](Cc1c[nH]c2ccccc12)NC(=O)[C@H](CCC(N)=O)NC(=O)[C@@H](NC(=O)[C@H](Cc1ccccc1)NC(=O)[C@H](C)NC(=O)[C@H](CCCCNC(=O)COCCOCCNC(=O)COCCOCCNC(=O)CC[C@H](NC(=O)CCCCCCCCCCCCCCCCCCC(=O)O)C(=O)O)NC(=O)[C@H](CCC(N)=O)NC(=O)[C@H](C)NC(=O)[C@@H](NC(=O)[C@H](CCCCN)NC(=O)[C@H](CC(=O)O)NC(=O)[C@H](CC(C)C)NC(=O)C(C)(C)NC(=O)[C@@H](NC(=O)[C@H](CO)NC(=O)[C@H](Cc1ccc(O)cc1)NC(=O)[C@H](CC(=O)O)NC(=O)[C@H](CO)NC(=O)[C@@H](NC(=O)[C@H](Cc1ccccc1)NC(=O)[C@@H](NC(=O)CNC(=O)[C@@H](CC(=O)O)NC(=O)CCCNC(=O)C(C)(C)c1cc(F)cc(C#N)c1)[C@@H](C)O)[C@@H](C)O)[C@@H](C)CC)[C@@H](C)CC)C(C)C)C(=O)N[C@@H](C)C(=O)NCC(=O)NCC(=O)N1CCC[C@H]1C(=O)N[C@@H](CO)C(=O)N[C@@H](CO)C(=O)NCC(=O)N[C@@H](C)C(=O)N1CCC[C@H]1C(=O)N1CCC[C@H]1C(=O)N1CCC[C@H]1C(=O)N[C@@H](CO)C(N)=O [Compound 120] ({Isobutyryl(2-(3-CN-5-F-Ph))-GABA}-[dD]GTFTSDYSI[Aib]LDKIAQK([AEEA-AEEA-γGlu-C20 diacid])AFVQWLIAGGPSSGAPPPS-NH2)	7.00 to 8.00	104	6.00 to 7.00	40	< 6.00	< 6.00
CC[C@H](C)[C@H](NC(=O)[C@H](CC(C)C)NC(=O)[C@H](Cc1ccc(O)cc1)NC(=O)[C@@H](CCC(=O)O)NC(=O)[C@@H](NC(=O)[C@H](Cc1ccccc1)NC(=O)[C@H](CCC(=O)O)NC(=O)C(C)(C)NC(=O)[C@H](CCC(N)=O)NC(=O)[C@H](C)NC(=O)[C@H](CCCCNC(=O)COCCOCCNC(=O)COCCOCCNC(=O)CC[C@H](NC(=O)CCCCCCCCCCCCCCCCCCC(=O)O)C(=O)O)NC(=O)[C@H](CCCN)NC(=O)[C@H](CC(=O)O)NC(=O)[C@H](CC(C)C)NC(=O)[C@](C)(CC(C)C)NC(=O)[C@@H](NC(=O)[C@H](CO)NC(=O)[C@H](Cc1ccc(O)cc1)NC(=O)[C@H](CC(=O)O)NC(=O)[C@H](CO)NC(=O)[C@@H](NC(=O)[C@](C)(Cc1ccccc1F)NC(=O)[C@@H](NC(=O)CNC(=O)[C@H](CCC(=O)O)NC(=O)CCNC(=O)C(C)(C)c1cc(F)cc(C#N)c1)[C@@H](C)O)[C@@H](C)O)[C@@H](C)CC)[C@@H](C)CC)C(=O)N[C@@H](CCC(=O)O)C(=O)NCC(=O)NCC(=O)N1CCC[C@H]1C(=O)N[C@@H](CO)C(=O)N[C@@H](CO)C(=O)NCC(=O)N[C@@H](C)C(=O)N1CCC[C@H]1C(=O)N1CCC[C@H]1C(=O)N1CCC[C@H]1C(=O)N[C@@H](CO)C(N)=O [Compound 140] ({Isobutyryl(2-(3-CN-5-F-Ph))-βAla}-EGT[αMePhe(2-F)]TSDYSI[αMeL]LD[Orn]K([AEEA-AEEA-γGlu-C20 diacid])AQ[Aib]EFI[dE]YLIEGGPSSGAPPPS-NH2)	> 10.00	104	> 10.00	108	> 6.00	< 6.00
CC[C@H](C)[C@H](NC(=O)[C@H](CC(C)C)NC(=O)[C@H](Cc1c[nH]c2ccccc12)NC(=O)[C@H](CCC(N)=O)NC(=O)[C@@H](NC(=O)[C@H](Cc1ccccc1)NC(=O)[C@H](C)NC(=O)[C@H](CCCCNC(=O)COCCOCCNC(=O)COCCOCCNC(=O)CC[C@H](NC(=O)CCCCCCCCCCCCCCCCCCC(=O)O)C(=O)O)NC(=O)[C@H](CCC(N)=O)NC(=O)[C@H](C)NC(=O)[C@@H](NC(=O)[C@H](CCCCN)NC(=O)[C@H](CC(=O)O)NC(=O)[C@H](CC(C)C)NC(=O)C(C)(C)NC(=O)[C@@H](NC(=O)[C@H](CO)NC(=O)[C@H](Cc1ccc(O)cc1)NC(=O)[C@H](CC(=O)O)NC(=O)[C@H](CO)NC(=O)[C@@H](NC(=O)[C@H](Cc1ccccc1)NC(=O)[C@@H](NC(=O)CNC(=O)[C@H](CCC(=O)O)NC(=O)CCNC(=O)C(C)(C)c1ccccc1F)[C@@H](C)O)[C@@H](C)O)[C@@H](C)CC)[C@@H](C)CC)C(C)C)C(=O)N[C@@H](C)C(=O)NCC(=O)NCC(=O)N1CCC[C@H]1C(=O)N[C@@H](CO)C(=O)N[C@@H](CO)C(=O)NCC(=O)N[C@@H](C)C(=O)N1CCC[C@H]1C(=O)N1CCC[C@H]1C(=O)N1CCC[C@H]1C(=O)N[C@@H](CO)C(N)=O [Compound 198] ({X61-βAla}-EGTFTSDYSI[Aib]LDKIAQK([AEEA-AEEA-γGlu-C20 diacid])AFVQWLIAGGPSSGAPPPS-NH2)	9.00 to 10.00	99	8.00 to 9.00	102	> 6.00	< 6.00
